Measured values from patent US20230250145A1, “COMPOSITIONS AND METHODS FOR THE TREATMENT OF CANCER” (MOMA Therapeutics, Inc., priority 2020, published 2023).

Assays:
FANCM protein = assay: Western blot of FANCM protein levels; type: cell-based; conditions: cells treated with CRISPR RNP sgRNA (FIG. 4B)
Method: Cells were plated for all conditions at a necessary density for analysis (1×10^7 cells per/reaction for nuclear isolation). Following treatment, cells were washed with PBS and trypsinized with TrypLE until loss of adherence. Cells were collected in a 15 mL falcon tube and spun down into a pellet at 1,000 RPM×5 minutes. The supernatant is aspirated and pellets were then placed into downstream protocol (NE-PER cell fractionation kit protocol as provided by vendor). Samples were run on 3-8% Bis-tris gels (Thermo fisher Cat #EA0375PK2) for 45 minutes @ 200 v. […] Membranes were stained overnight at 4 degrees with appropriate antibodies.
FANCM: Anti-FANCM Antibody, clone CV5.1 (MABC545) 1:1000 dilution
Lamin B: Recombinant Anti-Lamin B1 antibody [EPR8985(B)] (ab133741) 1:2000 dilution

[1] = tested on: FANCM mRNA transcript in UWB1.289; assay: qPCR of FANCM mRNA expression after doxycycline induced shRNA; type: cell-based; conditions: three days of doxycycline treatment
From the text: All shRNAs were cloned into pLKO-tet-on vector, packaged into lentivirus and titered for each cell line for an MOI <0.7.

Substance	FANCM protein expression (Western blot) (FANCM protein)	FANCM mRNA transcripts (qPCR) [1]
FANCM sgRNA #3: sgRNA targeting the FANCM locus, SEQ ID NO: 69, CATGACCACGGCGGCAATAA (synthetic chemically modified sgRNA (Synthego EZ kit), pattern not given here)	loss of FANCM protein expression	–
shRNA #1858: doxycycline-inducible shRNA targeting FANCM, SEQ ID NO: 78, AGGACGAGAGGAACGTATTTA	–	loss of FANCM mRNA transcripts
FANCM sgRNA #4: sgRNA targeting the FANCM locus, SEQ ID NO: 70, AAAGACCTTTATTGCCGCCG (synthetic chemically modified sgRNA (Synthego EZ kit), pattern not given here)	loss of FANCM protein expression	–
shRNA #1307: doxycycline-inducible shRNA targeting FANCM, SEQ ID NO: 77, GACTTCATGAAACTCTATAAT	–	loss of FANCM mRNA transcripts
